Measured values: patent EP4582418A1, “CRYSTALLINE FORM OF QUINOLINE DERIVATIVE INHIBITOR, PREPARATION METHOD THEREFOR AND USE THEREOF” (TransThera Sciences (Nanjing), Inc., priority 2022, dated 2024)

Legend:
[1] = Stability test under influencing factors (high temperature, high humidity, illumination); format: physicochemical; conditions: for changes in the appearance and purity: left to stand under conditions of the influencing factors for 30 days
Method: Test substances: the crystal forms I, II, III, and IV of the methanesulfonate of the compound of formula (I) of the present disclosure.
Methodology: Appropriate amounts of samples of the crystal forms I, II, III, and IV of the methanesulfonate of the compound of formula (I) were separately left to stand open under the conditions of a high temperature (60 °C), a high humidity (RH 92.5%), and illumination (4500±500 Lux); sampling was performed on days 5, 10, and 30 to investigate changes in the appearance, purity, and crystal form of the samples.

[2] = Solubility in FaSSIF (pH 6.5) and FeSSIF (pH 5.0) buffer solutions; format: physicochemical; conditions: for 24-hour solubility in buffer solutions with different pH values pH6.5: FaSSIF (pH 6.5); for 24-hour solubility in buffer solutions with different pH values pH6.5 / 24-hour solubility in buffer solutions with different pH values pH5.0: 37 °C, shaken 24 h; for 24-hour solubility in buffer solutions with different pH values pH5.0: FeSSIF (pH 5.0); for solubility compared with the compound of formula (I): test solutions at pH 5.0 and pH 6.5
Method: Test substances: the crystal forms I, II, III, and IV of the methanesulfonate of the compound of formula (I).
• 1) 0.42 g of NaOH, 3.44 g of anhydrous NaH2PO4, and 6.19 g of NaCl were dissolved in about 0.9 L of pure water; • 2) the pH was adjusted to 6.5 using 1 N NaOH or 1 N HCl, and the buffer solution was supplemented to the volume of 1 L with pure water at room temperature; • 3) 2.24 g of FaSSIF powder was added to about 0.5 L of the buffer solution, and the mixture was stirred until the powder was completely dissolved; the resulting solution was supplemented to the volume of 1 L with the buffer solution at room temperature, and after being left to stand for 2 h, it was ready for use.
• 1) 4.04 g of NaOH, 8.65 g of glacial acetic acid, and 11.87 g of NaCl were dissolved in about 0.9 L of pure water; • 2) the pH was adjusted to 5.0 using 1 N NaOH or 1 N HCl, and the buffer solution was supplemented to the volume of 1 L with pure water at room temperature; • 3) 11.2 g of FeSSIF powder was added to about 0.5 L of the buffer solution, and the mixture was stirred until the powder was completely dissolved; the resulting solution was supplemented to the volume of 1 L with the buffer solution at room temperature, and after being left to stand for 2 h, it was ready for use.
An appropriate amount of each test substance was placed into separate 10 mL PE tubes, and FaSSIF (pH 6.5) buffer solution and FeSSIF (pH 5.0) buffer solution, each 10 mL, were added into the tubes, respectively. The tubes were then placed in a constant temperature water bath shaker and shaken at 37 °C for 24 h. After 24 h, samples were collected and centrifuged. The supernatants were diluted, and the solubility of the supernatants was measured.

[3] = PK evaluation of crystal forms in rats; format: in vivo; conditions: SD rats, PO 60 mg/kg
Method: The experimental crystal forms I and II of the methanesulfonate of the compound of formula (I) were each prepared into a suspension solution with 0.5% HPMC. The compound solutions were intragastrically administered to SD rats at a dose of 60 mg/kg. Blood samples were collected at time points of 15 min, 30 min, 1 h, 2 h, 4 h, 6 h, 8 h, 24 h, 48 h, 72 h, and 96 h after administration.
The animals were fixed, with tails warmed in a water bath 10 min before each sampling time point. About 100 µL of blood was collected via the tail vein, and the blood samples were collected in anticoagulation tubes containing EDTA-K2. The blood samples were then centrifuged at 8,000 rpm for 6 min at 4 °C to give plasma samples. The plasma samples were prepared within 30 min after blood collection. The plasma samples were stored in a refrigerator at -80 °C before the test.
The sample to be tested was taken out from the -80 °C refrigerator, naturally thawed at room temperature, and vortexed for 5 min. 20 µL of plasma sample was precisely pipetted to a 1.5 mL centrifuge tube, and 200 µL of internal standard working solution (a solution of tolbutamide in methanol, 100 ng/mL) was added. The resulting mixture was thoroughly mixed, vortexed for 5 min, and centrifuged at 12,000 rpm for 5 min. 50 µL of supernatant was precisely pipetted to a 96-well plate pre-loaded with 150 µL of water per well, and the resulting mixture was vortexed for 5 min and then used for LC-MS/MS analysis.
The concentrations of the test samples were calculated by Analyst 1.6.3 from AB Sciex. Parameters such as mean, standard deviation, and coefficient of variation (excluding those output directly by Analyst 1.6.3) were calculated by Microsoft Excel. PK parameters were calculated by Pharsight Phoenix 6.1 software NCA (Tmax was in median).

[4] = Left to stand open at 60 °C for 5 days
[5] = Left to stand open at 60 °C for 10 days
[6] = Left to stand open at 60 °C for 30 days
[7] = Left to stand open at RH 92.5% for 5 days
[8] = Left to stand open at RH 92.5% for 10 days
[9] = Left to stand open at RH 92.5% for 30 days
[10] = Left to stand open under illumination (4500±500 Lux) for 5 days
[11] = Left to stand open under illumination (4500±500 Lux) for 10 days
[12] = Left to stand open under illumination (4500±500 Lux) for 30 days

Appearance ([1]; 0 days)	Purity ([1]; 0 days) [%]	Appearance [1, 4]	Purity [1, 4] [%]	Appearance [1, 5]	Purity [1, 5] [%]	Appearance [1, 6]	Purity [1, 6] [%]	Appearance [1, 7]	Purity [1, 7] [%]	Appearance [1, 8]	Purity [1, 8] [%]	Appearance [1, 9]	Purity [1, 9] [%]	Appearance [1, 10]	Purity [1, 10] [%]	Appearance [1, 11]	Purity [1, 11] [%]	24-hour solubility in buffer solutions with different pH values pH6.5 [2] [mg/mL]	24-hour solubility in buffer solutions with different pH values pH5.0 [2] [mg/mL]	Compound	also measured
White or off-white solid	99.91	White or off-white solid	99.91	White or off-white solid	99.91	White or off-white solid	99.87	White or off-white solid	99.92	White or off-white solid	99.92	White or off-white solid	99.92	White or off-white solid	99.91	White or off-white solid	99.91	0.023	0.31	COc1cc2nccc(Oc3ccc(NC(=O)c4nn(C(C)C)cc(-c5ccc(F)cc5)c4=O)nc3)c2cc1OC [Crystal form IV, N-(5-((6,7-dimethoxyquinolin-4-yl)oxy)pyridin-2-yl)-5-(4-fluorophenyl)-1-isopropyl-4-oxo-1,4-dihydropyridazine-3-carboxamide]	Appearance [1, 12]: White or off-white solid; Purity [1, 12]: 99.88%; changes in the appearance and purity [1]: no significant changes; solubility compared with the compound of formula (I) [2]: significantly improved
																		0.0002	0.004	COc1cc2nccc(Oc3ccc(NC(=O)c4nn(C(C)C)cc(-c5ccc(F)cc5)c4=O)nc3)c2cc1OC [Compound of formula (I), N-(5-((6,7-dimethoxyquinolin-4-yl)oxy)pyridin-2-yl)-5-(4-fluorophenyl)-1-isopropyl-4-oxo-1,4-dihydropyridazine-3-carboxamide]	
White or off-white solid	99.74	White or off-white solid	99.74	White or off-white solid	99.73	White or off-white solid	99.72	White or off-white solid	99.74	White or off-white solid	99.74	White or off-white solid	99.74	White or off-white solid	99.75	White or off-white solid	99.74	0.023	0.31	COc1cc2nccc(Oc3ccc(NC(=O)c4nn(C(C)C)cc(-c5ccc(F)cc5)c4=O)nc3)c2cc1OC [Crystal form II, N-(5-((6,7-dimethoxyquinolin-4-yl)oxy)pyridin-2-yl)-5-(4-fluorophenyl)-1-isopropyl-4-oxo-1,4-dihydropyridazine-3-carboxamide]	AUClast ([3]; 0-96 h, n = 3): 3054.395 µg·h/mL; Cmax ([3]; n = 3): 58.933 µg/mL; λ_z ([3]; n = 3, suspension in 0.5% HPMC): 0.026 h⁻¹; Tmax ([3]; median, n = 3): 6.00 h; tz1/2 ([3]; terminal half-life, n = 3): 27.0 h; Appearance [1, 12]: White or off-white solid; Purity [1, 12]: 99.75%; changes in the appearance and purity [1]: no significant changes; solubility compared with the compound of formula (I) [2]: significantly improved
White or off-white solid	99.90	White or off-white solid	99.90	White or off-white solid	99.90	White or off-white solid	99.89	White or off-white solid	99.90	White or off-white solid	99.90	White or off-white solid	99.90	White or off-white solid	99.90	White or off-white solid	99.91	0.023	0.025	COc1cc2nccc(Oc3ccc(NC(=O)c4nn(C(C)C)cc(-c5ccc(F)cc5)c4=O)nc3)c2cc1OC [Crystal form III, N-(5-((6,7-dimethoxyquinolin-4-yl)oxy)pyridin-2-yl)-5-(4-fluorophenyl)-1-isopropyl-4-oxo-1,4-dihydropyridazine-3-carboxamide]	Appearance [1, 12]: White or off-white solid; Purity [1, 12]: 99.91%; changes in the appearance and purity [1]: no significant changes; solubility compared with the compound of formula (I) [2]: significantly improved
